In PMC8715907 (Chembiochem : a European journal of chemical biology, 2020):

Assays:
RECON (mRECON) = molecular target: T1, RECON (mRECON) (Mus musculus, UniProt Q8VC28); experiment: DRaCALA; assay type: binding
T1 sequence (Q8VC28 1-323): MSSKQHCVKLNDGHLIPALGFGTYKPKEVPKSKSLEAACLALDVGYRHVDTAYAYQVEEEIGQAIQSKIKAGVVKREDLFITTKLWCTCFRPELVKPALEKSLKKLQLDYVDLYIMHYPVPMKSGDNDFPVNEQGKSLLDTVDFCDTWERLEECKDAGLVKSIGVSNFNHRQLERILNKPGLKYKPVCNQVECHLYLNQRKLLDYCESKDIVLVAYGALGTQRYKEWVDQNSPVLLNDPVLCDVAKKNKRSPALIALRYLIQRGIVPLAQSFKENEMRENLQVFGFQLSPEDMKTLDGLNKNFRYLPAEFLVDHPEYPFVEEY

CnpB = CnpB (Mycobacterium tuberculosis, UniProt P71615); experiment: DRaCALA, serial dilutions of protein; assay type: binding
CnpB, sequence (P71615 whole entry): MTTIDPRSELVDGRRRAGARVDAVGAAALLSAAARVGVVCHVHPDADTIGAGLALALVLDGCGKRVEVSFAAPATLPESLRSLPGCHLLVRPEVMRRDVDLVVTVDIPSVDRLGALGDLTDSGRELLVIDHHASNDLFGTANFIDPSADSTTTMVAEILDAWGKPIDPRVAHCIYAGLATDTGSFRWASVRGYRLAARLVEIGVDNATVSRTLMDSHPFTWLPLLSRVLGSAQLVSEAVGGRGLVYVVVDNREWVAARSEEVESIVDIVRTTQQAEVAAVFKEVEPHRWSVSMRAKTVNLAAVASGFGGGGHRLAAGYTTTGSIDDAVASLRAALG

Nc1ncnc2c1ncn2[C@@H]1O[C@@H]2COP(=O)(O)O[C@H]3[C@@H](O)[C@H](n4cnc5c(N)ncnc54)O[C@@H]3COP(=O)(O)O[C@H]2[C@H]1O [3’3’-c-di-AMP]
Kd (RECON (mRECON)): 68 nM | Kd (CnpB): ~3000 nM
